Measured values reported in patent publication US20060094693A1, “Methods and compositions for treating glucose-associated conditions, metabolic syndrome, dyslipidemias and other conditions” (Point Therapeutics, Inc., priority 2004, published 2006).

Assays:
Lewis rats = experiment: in vivo; settings: Lewis rats, single dose, 5 days observation
Description: Serum DPP-IV inhibition and observation of acute toxicity of amino boronic dipeptides in Lewis rats. […] After observations were completed or at the onset of a moribund state, humane euthanasia was performed by asphyxiation in 100% CO2.

[1] = molecular target: T1, soluble recombinant human DPP-IV (Homo sapiens, UniProt P27487); experiment: In vitro assay of enzymatic activity of recombinant soluble DPP-IV and inhibition by amino boronic dipeptides; type: biochemical; settings: assayed 3 minutes, 78 minutes and 16 hours after addition of Ala-Pro-AFC
T1 construct: immunoglobulin kappa light chain secretion signal (pSecTag2-B) (N, cleaved yes); made in house; host or cells: 293T cells, transient transfection; unpurified culture supernatant used
T1 sequence (P27487 39-766 limits assumed): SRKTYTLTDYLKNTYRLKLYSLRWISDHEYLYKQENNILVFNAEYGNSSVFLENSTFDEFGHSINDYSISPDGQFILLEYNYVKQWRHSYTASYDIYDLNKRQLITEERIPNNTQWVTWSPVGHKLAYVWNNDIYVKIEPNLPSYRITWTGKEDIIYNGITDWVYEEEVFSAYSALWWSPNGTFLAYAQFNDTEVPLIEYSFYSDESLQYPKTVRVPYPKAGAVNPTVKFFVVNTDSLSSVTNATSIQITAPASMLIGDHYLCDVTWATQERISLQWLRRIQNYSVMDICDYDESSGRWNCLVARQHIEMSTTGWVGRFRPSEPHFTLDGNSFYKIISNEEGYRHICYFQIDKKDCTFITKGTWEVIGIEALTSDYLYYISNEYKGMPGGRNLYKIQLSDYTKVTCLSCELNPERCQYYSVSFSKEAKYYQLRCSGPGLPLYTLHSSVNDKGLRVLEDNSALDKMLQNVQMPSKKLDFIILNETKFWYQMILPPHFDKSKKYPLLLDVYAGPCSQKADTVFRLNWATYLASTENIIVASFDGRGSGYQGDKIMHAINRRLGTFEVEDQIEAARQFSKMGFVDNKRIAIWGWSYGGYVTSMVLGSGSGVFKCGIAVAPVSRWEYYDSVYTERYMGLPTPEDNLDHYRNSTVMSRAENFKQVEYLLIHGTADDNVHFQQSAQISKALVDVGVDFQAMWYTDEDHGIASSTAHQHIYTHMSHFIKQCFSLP
Excerpt: Production of soluble recombinant human DPP-IV. Based on information on the N-terminus of serum DPP-IV (15), a truncated DPP-IV was engineered in which a signal/leader sequence was joined to the residue in DPP-IV corresponding to the N-terminus of serum DPP-IV to allow secretion. The cDNA encoding the desired truncated human DPP-IV dimer enzyme was engineered into the mammalian secretion vector pSecTag2 (Cat# V900-20, InVitrogen Corporation). The vector, available in A, B or C versions, representing three possible phases for gene fusion, contained an immunoglobulin-kappa light chain secretion signal followed by a selection of restriction sites for gene insertion. The fusion required engineering a restriction site upstream of the chosen fusion amino acid in the 5′ end of the DPP-IV dimer enzyme nucleic acid in phase with the chosen restriction site (Sfi I) in the vector secretion sequence. The chosen fusion amino acid in the 5′ end of the DPP-IV (Ser39) was 3′ of the trans-membrane anchoring domain. The pSecTag2 version B and its Sfi I restriction site was chosen for the fusion because it minimizes the additional N-terminal, vector-encoded residues in the mature secreted protein.
Construction of the fusion was as follows. First, total RNA was isolated from the Caco-2 colorectal carcinoma cell line (ATCC HTB-37) by standard Trizol/phenol/chloroform methodology. The purified RNA (approx. 2.5 μg in a 20 μl reaction) was used to make cDNA using oligo-dT primer and a commercial reverse transcription (RT) kit (InVitrogen). […] The following thermal cycler program was used: 94° C. for 45 sec. initial denaturation, then 30 cycles of 94° C., 10 sec.; 48° C., 6 sec.; 60° C., 4 min; followed by 5-min. extension at 72° C. after cycling.
DNA from the plasmid encoding DPP-IV dimer enzyme was prepared on an approximately 400 μg scale from overnight 30 ml cultures in Luria broth with 100 μg ampicillin per ml using a commercial kit (Qiagen Maxiprep Kit).
In vitro assay of enzmatic activity ofrecombinant soluble DPP-IV and inhibition by amino boronic dipeptides. The assay reaction mixture consisted of 135 μl 50 mM HEPES/Na buffer pH 7.6, 140 mM NaCl, 10-15 gl enzyme-containing culture supernatant, dipeptide substrate Ala-Pro-(7-amino-4-trifluoromethyl coumarin) (Ala-Pro-AFC; Enzyme System Products, Dublin, Calif.) at typically 0.1-1 mM added from a 100 or 400 mM stock in dimethyl formamide. The reaction mixture was incubated at room temperature, and production of the fluorescent AFC product was measured in a fluorometer (excitation, 400 nm; emission 505 nm), either by continuous monitoring or after termination with a one to one-tenth volume of 1 -M sodium acetate, pH 4.5. Fluorometric reading were made with a Molecular Dynamics Spectra Max GeminiXS capable of reading 96-well microtiter plates. The inhibitory activity of amino boronic dipeptides was investigated by preincubation of assay reaction mixtures with varying concentrations of each compound for 10 minutes before the addition of the substrate Ala-Pro-AFC.

serum KC/CXCL1 = experiment: Serum KC/CXCL1 levels in vivo (ELISA); design: species or system BALB/c mice; settings: 0.2-200 μg/mouse oral, 2 hours
Description: Assay ofserum DPP-IV inhibition and KC/CXCL1 levels in vivo. […] Each mouse received a single administration of each amino boronic dipeptide or saline, and blood samples were withdrawn from mice 2 hours later.
Serum concentration of mouse KC/CXCL1 was determined by Quantikine enzyme-linked immunosorbent assay (ELISA; R&D Systems, Minneapolis, Minn.) according to the manufacturer's instructions. ELISA was performed in duplicate for each sample.

[2] = test system: human bone marrow stromal cells; experiment: G-CSF supernatant levels in human bone marrow stromal cell cultures; type: cell-based; settings: 1 to 10^4 nM, 24 hours
Description: Human bone marrow stromal cell cultures. Samples of normal human bone marrow were purchased from Cambrex Bioproducts (Walkersville, Md.) and mononuclear cells were purified over Ficoll-Hypaque (Nycomed, Oslo, Norway). Human stromal layers were established by seeding 4×10^7 mononuclear cells into T75 flasks (Corning) containing 20 ml MyeloCult medium (Stem Cell Technologies, Vancouver, BC) supplemented with 10^−6 M hydrocortisone (Sigma) and incubation at 37° C. in 100% humidified 5% CO2 in air. After one week, half the medium was exchanged, and the cultures incubated for approximately one week more, after which time, a semi-confluent cell layer was formed. Stromal cells were harvested by trypsinization using standard technique and 10^5 cells/well were seeded in multi-well plates in 1 ml of fully supplemented DMEM (InVitrogen, Carlsbad, Calif.). […] Multiwell cultures without the addition of amino boronic dipeptides served as controls. […] Supernatant concentrations of human G-CSF were determined by Quantikine enzyme-linked immunosorbent assay (ELISA; R&D Systems, Minneapolis, Minn.) according to the manufacturer's instructions. […] The effect of each amino boronic dipeptide on the level of supernatant G-CSF was determined by calculating a stimulation index (SI): SI=(mean G-CSF concentration in culture with amino boronic dipeptide)/(mean G-CSF concentration in control culture).

[3] = test system: Zucker Diabetic Fatty (ZDF) rats; experiment: 6 week glycemic control study in Zucker Diabetic Fatty rats; type: in vivo; settings: Metformin group, day 14-15
Description: The design of the 6 week long study is depicted in FIG. 8. 60 male Zucker Diabetic Fatty (ZDF) rats (5 weeks of age) were obtained from Charles River Labs. The animals are housed singly and allowed to acclimatize for 1 week before the initiation of the study. 24-hour food intake and body weight was measured gravimetrically twice weekly from the start of housing. HbA1C levels were measured at Day 0, 7, 14, 28 and 46. OGTT was administered on Day 2-3, 15 minutes after the administration of the drugs. OGTT was administered again at the end of the study but in this case, drugs were given 15 hours prior to the OGTT. The 24-hour glucose profile was monitored at day 14-15 of the study.
The insulin sensitivity index was calculated at the termination of the study according to the method described by Matsuda and DeFronzo (Diabetes Care. 1999 Sep.;22(9):1462-70).

serum DPP-IV = molecular target: T2, serum DPP-IV (Rattus norvegicus, UniProt P14740); experiment: Serum DPP-IV inhibition in Lewis rats; type: in vivo; settings: single oral administration, 2 hours
T2 construct: from tissue; host or cells: serum of Lewis rats dosed with the compounds
T2 sequence (P14740 37-767 limits assumed): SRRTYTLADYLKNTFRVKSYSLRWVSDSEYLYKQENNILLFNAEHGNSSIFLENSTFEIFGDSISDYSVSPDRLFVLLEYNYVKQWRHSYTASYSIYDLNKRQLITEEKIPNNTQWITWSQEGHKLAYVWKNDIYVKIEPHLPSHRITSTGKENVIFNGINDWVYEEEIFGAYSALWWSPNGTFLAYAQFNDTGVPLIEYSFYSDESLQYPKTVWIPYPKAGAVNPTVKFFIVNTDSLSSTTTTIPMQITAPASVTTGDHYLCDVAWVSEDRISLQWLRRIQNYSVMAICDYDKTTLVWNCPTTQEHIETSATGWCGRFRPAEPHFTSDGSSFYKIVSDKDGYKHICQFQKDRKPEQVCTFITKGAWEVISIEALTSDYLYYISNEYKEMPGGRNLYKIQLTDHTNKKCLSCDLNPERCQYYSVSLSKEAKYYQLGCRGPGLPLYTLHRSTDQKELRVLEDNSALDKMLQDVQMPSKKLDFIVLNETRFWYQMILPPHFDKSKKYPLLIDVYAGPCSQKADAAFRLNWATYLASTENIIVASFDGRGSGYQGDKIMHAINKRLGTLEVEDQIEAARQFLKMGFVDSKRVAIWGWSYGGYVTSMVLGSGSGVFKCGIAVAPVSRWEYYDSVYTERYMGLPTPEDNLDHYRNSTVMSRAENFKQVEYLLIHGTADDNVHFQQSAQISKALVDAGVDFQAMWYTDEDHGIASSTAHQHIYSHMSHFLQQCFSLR
Description: Assay of serum DPP-IV inhibition in vivo. […] DPP-IV activity was determined by reaction of 10 μl serum with 90 μl of 0.11 mM Ala-Pro-AFC (Enzyme System Products, Dublin, Calif.) in 50 mM HEPES/Na buffer pH 7.6, 140 mM NaCl.

DPP-IV = DPP-IV (Homo sapiens, UniProt P27487); settings: in vivo; cited from earlier work
Sequence of DPP-IV (P27487 whole entry, species assumed): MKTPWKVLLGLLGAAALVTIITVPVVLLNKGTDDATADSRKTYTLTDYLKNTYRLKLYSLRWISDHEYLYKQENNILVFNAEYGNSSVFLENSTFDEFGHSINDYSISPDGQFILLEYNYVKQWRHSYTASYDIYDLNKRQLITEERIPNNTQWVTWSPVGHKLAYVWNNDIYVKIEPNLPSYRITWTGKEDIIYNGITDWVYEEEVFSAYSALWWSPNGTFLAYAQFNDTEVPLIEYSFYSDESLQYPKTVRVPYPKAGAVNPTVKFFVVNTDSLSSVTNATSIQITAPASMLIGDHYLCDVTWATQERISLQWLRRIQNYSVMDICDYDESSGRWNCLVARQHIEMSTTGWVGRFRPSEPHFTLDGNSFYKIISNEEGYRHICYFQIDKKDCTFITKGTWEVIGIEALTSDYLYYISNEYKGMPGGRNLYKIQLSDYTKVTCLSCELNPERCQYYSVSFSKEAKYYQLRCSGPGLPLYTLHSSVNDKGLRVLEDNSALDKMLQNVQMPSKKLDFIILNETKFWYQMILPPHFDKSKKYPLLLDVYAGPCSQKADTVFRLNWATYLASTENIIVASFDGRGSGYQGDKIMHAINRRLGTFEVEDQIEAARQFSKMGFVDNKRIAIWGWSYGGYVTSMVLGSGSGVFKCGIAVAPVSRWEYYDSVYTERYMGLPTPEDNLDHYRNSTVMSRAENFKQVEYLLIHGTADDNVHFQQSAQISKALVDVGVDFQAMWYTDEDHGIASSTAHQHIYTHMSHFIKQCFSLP

Compound | MTD (maximum tolerated dose) (Lewis rats) | persistence of DPP-IV inhibition after preincubation [1] | other results
C[C@H](N)C(=O)N1CCC[C@H]1B(O)O [Ala-boroPro] | ≧2,000 μg/kg | – | –
NC(N)=NCCC[C@H](N)C(=O)N1CCC[C@H]1B(O)O [Arg-boroPro] | ≧2,000 μg/kg | more rapidly reversible | –
NC(=O)CC[C@H](N)C(=O)N1CCC[C@H]1B(O)O [Gln-boroPro] | ≧800 μg/kg | – | –
CC[C@H](C)[C@H](N)C(=O)N1CCC[C@H]1B(O)O [Ile-boroPro] | 120 µg/kg | sustained DPP-IV inhibition | serum levels of KC/CXCL1 (serum KC/CXCL1): stimulate increased serum levels of KC/CXCL1 in a dose-dependent manner; supernatant G-CSF level (stimulation index) [2]: stimulate increased levels of G-CSF
CC(C)C[C@H](N)C(=O)N1CCC[C@H]1B(O)O [Leu-boroPro] | 200 µg/kg | more rapidly reversible | serum levels of KC/CXCL1 (serum KC/CXCL1): stimulate increased serum levels of KC/CXCL1 in a dose-dependent manner; supernatant G-CSF level (stimulation index) [2]: stimulate increased levels of G-CSF
NCCCC[C@H](N)C(=O)N1CCC[C@H]1B(O)O [Lys-boroPro] | ≧2,000 μg/kg | more rapidly reversible | –
CSCC[C@H](N)C(=O)N1CCC[C@H]1B(O)O [Met-boroPro] | 160 µg/kg | – | –
CN(C)C(=N)N=C(N)N [Metformin, reference compound] | – | – | AUC of 24 hour glucose profile [3]: achieve significance
N[C@@H](Cc1ccccc1)C(=O)N1CCC[C@H]1B(O)O [Phe-boroPro] | – | more rapidly reversible | –
O=C(C1CCCN1)N1CCCC1B(O)O (stereo not shown) [Pro-boroPro] | ≧2,000 μg/kg | more rapidly reversible | –
N[C@@H](CO)C(=O)N1CCC[C@H]1B(O)O [Ser-boroPro] | 4,000 μg/kg | – | –
C[C@@H](O)[C@H](N)C(=O)N1CCC[C@H]1B(O)O [Thr-boroPro] | 800 µg/kg | – | –
CC(C)[C@H](N)C(=O)N1CCC[C@H]1B(O)O [Val-boroPro] | 20 µg/kg | – | serum levels of KC/CXCL1 (serum KC/CXCL1): stimulate increased serum levels of KC/CXCL1 in a dose-dependent manner; ID50 (dose causing 50% reduction in serum DPP-IV activity) (serum DPP-IV): 0.009 mg/kg
gastric inhibitory protein [GIP] | – | – | t1/2 of N-terminal degradation (DPP-IV): ~1 min
